Assay: xn = mol fraction of the nth substance listed
Conditions: 101 kPa

O + C[N+](C)(CCCS(=O)(=O)O)C1CCCCC1.Cc1ccc(S(=O)(=O)[O-])cc1
x2 = 0
Conditions	viscosity [mPa·s]
308.15 K	0.7218
313.15 K	0.6564
318.15 K	0.6071
323.15 K	0.5538
328.15 K	0.5064

C[N+](C)(CCCS(=O)(=O)O)C1CCCCC1.Cc1ccc(S(=O)(=O)[O-])cc1 + O
viscosity [mPa·s]
Conditions	303.15 K	308.15 K	313.15 K	318.15 K	323.15 K	328.15 K
x1 = 0.0106	1.404	1.257	–	–	0.9115	–
x1 = 0.0277	2.684	2.406	2.146	1.943	1.789	–
x1 = 0.0603	7.903	–	–	5.145	4.579	–
x1 = 0.1458	78.86	62.58	48.83	–	31.56	25.56
x1 = 1	–	–	32650	17830	10187	6293

From a compilation of properties of binary mixtures (doi:10.1016/j.molliq.2016.12.089)
